Test results as given in patent publication US20230022488A1, “Laundry Composition” (FIRMENICH SA, priority 2019, published 2023).

Test system: panelist
Experiment: Odor threshold concentration (Log T / Log ODT) by gas chromatograph with sniff port
Set-up: species or system human
Protocol: “High impact perfume raw materials” should be understood as perfume raw materials having a Log T<−4. The odor threshold concentration of a chemical compound is determined in part by its shape, polarity, partial charges and molecular mass. For convenience, the threshold concentration is presented as the common logarithm of the threshold concentration, i.e., Log [Threshold] (“Log T”).
The odor threshold concentration of a perfuming compound is determined by using a gas chromatograph (“GC”). Specifically, the gas chromatograph is calibrated to determine the exact volume of the perfume oil ingredient injected by the syringe, the precise split ratio, and the hydrocarbon response using a hydrocarbon standard of known concentration and chain-length distribution. The air flow rate is accurately measured and, assuming the duration of a human inhalation to last 12 seconds, the sampled volume is calculated. […] To determine the threshold concentration, solutions are delivered to the sniff port at the back-calculated concentration. A panelist sniffs the GC effluent and identifies the retention time when odor is noticed. The average across all panelists determines the odor threshold concentration of the perfuming compound. The determination of odor threshold is described in more detail in C.

[1] = ingredient of Perfume oil B (Table 3)
[2] = ingredient of Perfume oil A (Table 1)
[3] = ingredient of Perfume oil C (Table 5)
[4] = ingredient of Perfume oil D (Table 7)

Molecule	Log ODT [1]	Log ODT [2]	Log ODT [3]	Log ODT [4]
.ALPHA.-DIHYDROTERPINEOL (A) + .BETA.-DIHYDROTERPINEOL (B)	>−4	–	–	–
2-METHYLBUTYL SALICYLATE (A) + PENTYL SALICYLATE (B)	–	>−4	–	–
c1ccc(Oc2ccccc2)cc1 [1,1′-OXYDIBENZENE]	–	>−4	–	–
10-UNDECENAL (A) + (9E)-9-UNDECENAL (B) + (9Z)-9-UNDECENAL (C)	<−4	–	<−4	–
1-OXA-12-CYCLOHEXADECEN-2-ONE (A) + 1-OXA-13-CYCLOHEXADECEN-2-ONE (B)	–	–	>−4	–
CCCCC[C@H]1C(=O)CC[C@@H]1CC(=O)OC (racemic) [METHYL 2-((1RS,2RS)-3-OXO-2-PENTYLCYCLOPENTYL) ACETATE]	–	>−4	>−4	–
(+)-(3S)-3-[(1R)-4-METHYL-3-CYCLOHEXEN-1-YL]BUTANAL (A) + (+)-(3R)-3-[(1R)-4-METHYL-3-CYCLOHEXEN-1-YL]BUTANAL	–	–	–	>−4
(+−)-(3E)-3-METHYL-4-(2,6,6-TRIMETHYL-2-CYCLOHEXEN-1-YL)-3-BUTEN-2-ONE (A) + (+−)-(1E)-1-(2,6,6-TRIMETHYL-2-CYCLOHEXEN-1-YL)-1-PENTEN-3-ONE (B)	–	–	<−4	–
3-(4-ETHYLPHENYL)-2,2-DIMETHYLPROPANAL (A) + 3-(2-ETHYLPHENYL)-2,2-DIMETHYLPROPANAL (B)	>−4	–	–	–
(1 RS,2RS)-2,4-DIMETHYL-3-CYCLOHEXENE-1-CARBALDEHYDE (A) + (1 RS,2SR)-2,4-DIMETHYL-3-CYCLOHEXENE-1-CARBALDEHYDE (B)	–	>−4	>−4	–
(2Z)-1,1-DIETHOXY-3,7-DIMETHYL-2,6-OCTADIENE (A) + (2E)-1,1-DIETHOXY-3,7-DIMETHYL-2,6-OCTADIENE (B)	>−4	–	–	>−4
CC(C)c1cccc(C(C)CC=O)c1 (racemic) [(+−)-3-(3-ISOPROPYL-1-PHENYL)BUTANAL]	<−4	–	–	–
(+−)-4-METHYLENE-2-PHENYLTETRAHYDRO-2H-PYRAN (A) + (+−)-4-METHYL-6-PHENYL-3,6-DIHYDRO-2H-PYRAN (B) + (+−)-4-METHYL-2-PHENYL-3,6-DIHYDRO-2H-PYRAN (C)	<−4	–	–	<−4
TRICYCLO[5.2.1.0~2,6~]DEC-3-EN-8-YL ACETATE (A) + TRICYCLO[5.2.1.0~2,6~]DEC-4-EN-8-YL ACETATE (B)	>−4	>−4	–	–
(2RS,4SR)-4-METHYL-2-(2-METHYL-1-PROPEN-1-YL)TETRAHYDRO-2H-PYRAN (A) + (2RS,4RS)-4-METHYL-2-(2-METHYL-1-PROPEN-1-YL)TETRAHYDRO-2H-PYRAN (B)	>−4	>−4	–	–
3,5,6-TRIMETHYL-3-CYCLOHEXENE-1-CARBALDEHYDE (A) + 2,4,6-TRIMETHYL-3-CYCLOHEXENE-1-CARBALDEHYDE (B)	–	–	>−4	–
3,7-DIMETHYL-2,6-NONADIENENITRILE (A) + 3,7-DIMETHYL-3,6-NONADIENENITRILE (B)	–	–	>−4	–
